The values below come from patent US20110112110A1, “ANTIPROLIFERATIVE COMPOUNDS AND THERAPEUTIC USES THEREOF” (UNIVERSITA' DEGLISTUDI DI MILANO- BICOCCA, priority 2008, published 2011).

By IC50 is commonly meant the concentration needed to halve the response being measured.

Read-outs that look alike come from different tables or passages of the source.

One experiment deals with T1, Recombinant ALK kinase (Homo sapiens, UniProt Q9UM73).
T1 construct: His tag (from pBlueBacHis2C vector); made in house; host or cells: insect cells, baculovirus
T1 sequence (Q9UM73 19-1620): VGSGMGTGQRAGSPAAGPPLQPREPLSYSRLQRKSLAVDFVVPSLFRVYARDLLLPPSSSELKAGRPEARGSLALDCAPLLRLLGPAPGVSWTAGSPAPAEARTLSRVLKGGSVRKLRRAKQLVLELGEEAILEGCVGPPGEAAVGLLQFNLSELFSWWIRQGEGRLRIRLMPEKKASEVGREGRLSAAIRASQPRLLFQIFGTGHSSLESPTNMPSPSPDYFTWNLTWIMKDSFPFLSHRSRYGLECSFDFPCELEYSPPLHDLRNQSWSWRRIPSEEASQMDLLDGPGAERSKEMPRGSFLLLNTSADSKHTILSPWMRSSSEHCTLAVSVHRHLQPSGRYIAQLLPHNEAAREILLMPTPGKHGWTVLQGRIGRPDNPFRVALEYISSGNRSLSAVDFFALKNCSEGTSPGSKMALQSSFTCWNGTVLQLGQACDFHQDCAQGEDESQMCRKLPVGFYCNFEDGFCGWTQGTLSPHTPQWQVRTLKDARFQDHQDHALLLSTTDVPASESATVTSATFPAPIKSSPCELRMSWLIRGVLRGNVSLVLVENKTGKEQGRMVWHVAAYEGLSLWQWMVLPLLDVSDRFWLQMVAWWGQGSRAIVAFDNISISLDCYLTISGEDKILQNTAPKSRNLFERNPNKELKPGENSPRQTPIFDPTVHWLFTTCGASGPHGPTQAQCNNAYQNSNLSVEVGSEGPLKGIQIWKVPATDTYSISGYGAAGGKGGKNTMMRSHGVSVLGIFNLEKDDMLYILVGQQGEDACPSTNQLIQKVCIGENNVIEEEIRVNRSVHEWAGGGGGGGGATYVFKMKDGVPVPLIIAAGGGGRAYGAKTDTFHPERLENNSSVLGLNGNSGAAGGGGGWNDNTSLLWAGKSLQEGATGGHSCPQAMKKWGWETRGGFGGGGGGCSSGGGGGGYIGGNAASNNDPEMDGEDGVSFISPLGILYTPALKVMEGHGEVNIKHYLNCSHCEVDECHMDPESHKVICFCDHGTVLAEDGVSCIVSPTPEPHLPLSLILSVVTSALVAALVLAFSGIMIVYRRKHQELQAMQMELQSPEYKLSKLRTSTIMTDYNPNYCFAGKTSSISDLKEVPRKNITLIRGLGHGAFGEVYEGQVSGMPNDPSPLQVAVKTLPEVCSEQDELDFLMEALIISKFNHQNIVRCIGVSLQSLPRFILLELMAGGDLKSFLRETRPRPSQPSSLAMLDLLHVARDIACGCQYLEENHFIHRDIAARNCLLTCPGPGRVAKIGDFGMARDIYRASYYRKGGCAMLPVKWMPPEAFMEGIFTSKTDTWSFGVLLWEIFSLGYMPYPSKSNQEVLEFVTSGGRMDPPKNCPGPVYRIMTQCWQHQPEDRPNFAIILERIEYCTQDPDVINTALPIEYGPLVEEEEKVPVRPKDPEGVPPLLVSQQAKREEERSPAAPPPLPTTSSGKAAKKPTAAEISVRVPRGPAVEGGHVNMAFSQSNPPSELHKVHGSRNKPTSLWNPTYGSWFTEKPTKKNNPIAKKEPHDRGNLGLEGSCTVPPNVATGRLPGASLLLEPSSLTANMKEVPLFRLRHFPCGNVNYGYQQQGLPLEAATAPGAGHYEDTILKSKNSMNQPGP
The experiment in a line: ELISA-based in vitro kinase assay (ALK kinase inhibitory activity). The experiment is classed as biochemical. The method, then:
(§1) Method: ELISA-Based In Vitro Kinase Assay
Recombinant ALK kinase was expressed in […] insect cells using the pBlueBacHis2C baculovirus vector system and purified using an anion exchange Fast Flow Q-sepharose column (Amersham-Pharmacia Biotech) followed by HiTrap™-nickel affinity column (Amersham-Pharmacia Biotech). Purified ALK protein was used to screen inhibitors in the ELISA-based kinase assay. […] Wells were then washed with 200 μl of wash buffer (PBS-Tween 0.05%) and left to dry for at least 2 hours at 37° C. The kinase reaction was performed in the presence of 50 mM Tris pH 7.5, 5 mM MnCl2, 5 mM MgCl2, 0.3 mM ATP and purified rALK in a total volume of 100 μl/well at 30° C. for 15 minutes. For inhibitor testing the reaction mix was preincubated with the inhibitor or solvent control for 10 mins at room temperature before transferring to the ELISA plate. After the reaction wells were washed 5 times with 200 μl of wash buffer. Phosphorylated peptide was detected using 100 μl/well of a mouse monoclonal anti-phosphotyrosine antibody (clone 4G10 UpstateBiotech Ltd) diluted 1:2000 in PBS+4% BSA. After 30 minutes incubation at room temperature the antibody was removed and wells were washed as described above. 100 μl of a secondary antibody (anti-mouse IgG, Horseradish Peroxidase linked whole antibody, Amersham Pharmacia Biotech) diluted 1:1000 in PBS+4% BSA was added to each well and the plate was incubated again for 30 minutes at room temperature before washing as above. The plate was developed using 100 μl/well TMB Substrate Solution (Endogen) and the reaction was stopped by adding an equal volume of H2SO4 0.36 M. Finally, the absorbance was read at 450 nm using an Ultrospec® 300 spectrophotometer (Amersham-Pharmacia Biotech).
Background: In an ELISA, binding on a coated surface is turned into a signal by an enzyme label.

The target of experiment [1] is T2, BaF3 cells transformed with NPM/ALK (Homo sapiens, UniProt Q9UM73).
T2 construct: fused on or other part: P06748 (Nucleophosmin)
T2 sequence (Q9UM73 whole entry, change not shown, the tested form may be a part): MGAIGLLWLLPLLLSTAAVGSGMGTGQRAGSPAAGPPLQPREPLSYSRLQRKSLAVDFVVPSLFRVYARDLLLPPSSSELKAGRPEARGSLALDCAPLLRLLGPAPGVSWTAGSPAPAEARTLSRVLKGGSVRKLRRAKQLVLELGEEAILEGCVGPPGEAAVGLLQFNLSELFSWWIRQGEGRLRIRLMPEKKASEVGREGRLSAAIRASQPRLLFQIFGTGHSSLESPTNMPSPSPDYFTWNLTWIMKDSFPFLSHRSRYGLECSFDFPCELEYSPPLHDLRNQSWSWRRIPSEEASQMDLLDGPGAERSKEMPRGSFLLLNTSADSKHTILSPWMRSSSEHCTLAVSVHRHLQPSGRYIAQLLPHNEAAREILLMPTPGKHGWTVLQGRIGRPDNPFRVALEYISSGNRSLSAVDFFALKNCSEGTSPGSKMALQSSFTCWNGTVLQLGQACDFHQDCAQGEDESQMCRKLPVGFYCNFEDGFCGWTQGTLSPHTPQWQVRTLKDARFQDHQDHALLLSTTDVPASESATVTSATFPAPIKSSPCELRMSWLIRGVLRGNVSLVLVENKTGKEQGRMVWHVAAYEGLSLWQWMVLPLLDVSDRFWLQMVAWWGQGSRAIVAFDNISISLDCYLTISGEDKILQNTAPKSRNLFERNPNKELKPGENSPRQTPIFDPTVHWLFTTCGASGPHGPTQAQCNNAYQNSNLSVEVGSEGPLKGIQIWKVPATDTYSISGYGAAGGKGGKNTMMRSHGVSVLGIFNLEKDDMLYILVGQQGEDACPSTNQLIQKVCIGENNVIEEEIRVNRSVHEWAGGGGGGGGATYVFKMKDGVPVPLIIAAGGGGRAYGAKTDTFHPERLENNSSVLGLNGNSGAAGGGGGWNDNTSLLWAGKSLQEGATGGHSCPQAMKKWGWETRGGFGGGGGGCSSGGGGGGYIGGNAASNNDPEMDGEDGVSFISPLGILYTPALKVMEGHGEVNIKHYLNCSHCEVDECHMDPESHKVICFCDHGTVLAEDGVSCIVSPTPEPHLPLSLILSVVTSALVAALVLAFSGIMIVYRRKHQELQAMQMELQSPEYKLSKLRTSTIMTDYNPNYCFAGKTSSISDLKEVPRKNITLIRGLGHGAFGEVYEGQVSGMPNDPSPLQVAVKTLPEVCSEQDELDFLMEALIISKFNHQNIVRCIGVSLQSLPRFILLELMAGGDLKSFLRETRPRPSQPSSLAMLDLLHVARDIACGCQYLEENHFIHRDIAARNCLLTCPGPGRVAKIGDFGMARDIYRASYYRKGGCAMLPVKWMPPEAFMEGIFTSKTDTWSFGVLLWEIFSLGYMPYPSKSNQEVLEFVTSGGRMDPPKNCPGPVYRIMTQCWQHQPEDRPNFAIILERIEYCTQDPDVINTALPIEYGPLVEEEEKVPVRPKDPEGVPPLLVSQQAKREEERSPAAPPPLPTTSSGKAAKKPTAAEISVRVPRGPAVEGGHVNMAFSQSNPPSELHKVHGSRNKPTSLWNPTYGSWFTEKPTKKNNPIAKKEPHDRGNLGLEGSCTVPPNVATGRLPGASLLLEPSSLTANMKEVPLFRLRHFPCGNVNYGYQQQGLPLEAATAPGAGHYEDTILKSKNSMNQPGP
The experiment in a line: Tritiated thymidine uptake cell proliferation assay. The experiment is classed as cell-based. The settings on record: read-out: IC50 values on the proliferation of BaF3 cells transformed with NPM/ALK; 72 h incubation, 3[H]-thymidine uptake. The method, then: Method: Tritiated Thymidine Uptake Cell Proliferation Assay
BaF3 cells, transformed with the oncogenic fusion protein NPM/ALK, were seeded in U-bottomed 96-well plates at 10 000 cells/well in a volume of 100 μL in supplemented medium. Serial dilutions of inhibitors were added to the appropriate wells and volumes adjusted to 200 μL. Controls were treated with the equivalent volume of vehicle, DMSO, alone. Plates were incubated at 37° C. for 72 h. ^3[H-]-thymidine (1 μCi/well) was added for the last 16 h of incubation. Cells were harvested on to glass filters and ^3[H]-thymidine incorporation was measured using a scintillation counter (1430 MicroBeta, Wallac, Turku, Finland).

The next experiment has as its target T3, Recombinant Abl T315I (Homo sapiens, UniProt P00519, T315I).
T3 construct: His tag (from pBlueBacHis2C vector); made in house; host or cells: Sf9 insect cells, baculovirus
The experiment in a line: ELISA-based in vitro kinase assay (Abl T315I mutant kinase inhibitory activity). The experiment is classed as biochemical. The settings on record: purified Abl T315I, 0.3 mM ATP, peptide substrate. The method, then:
as §1
Recombinant Abl T315I protein was expressed in Sf9 cells using the pBlueBacHis2C baculovirus expression vector. Abl T315I was purified using an anion exchange Fast Flow Q-sepharose column (Amersham-Pharmacia Biotech) followed by HiTrap™-nickel affinity column (Amersham-Pharmacia Biotech). Purified Abl T3151 was used in the ELISA-based kinase assay to screen inhibitors as described above. The kinase reaction was performed in the presence of 50 mM Tris pH 7.5, 1 mM MnCl2, 5 mM MgCl2, 0.3 mM ATP, peptide substrate ([…]) and purified Abl T315I.

[2] abbreviates: purified rALK, 0.3 mM ATP, ALK peptide substrate, 30° C. 15 minutes, read-out: IC50 values on ALK.

For `c1ccc2c(-c3ncc(-c4ccc(-c5cnc(-c6cccc7ccccc67)o5)cc4)o3)cccc2c1` [r19], the IC50 at Recombinant ALK kinase (setting [2]) came out at 1.2 µM.
Still for that read-out and setting: with `Clc1ccc(-c2csc(-c3ccc(-c4csnn4)cc3)n2)cc1Cl` [r35] the figure was 7.7 ± 0.2 µM; with `c1cc(-c2nc(-c3ccc4c(c3)OCCCO4)cs2)ccc1-c1csnn1` [r36], 27 µM.
Still for that read-out and setting: in the case of `COCCCNc1nc(-c2ccc(-c3ccccc3)cc2)cs1` [r43] it was 27.3 µM; in that of `O=S(=O)(Cc1ccco1)Cc1nc(-c2ccc(-c3ccccc3)cc2)cs1` [r48], 1.6 ± 0.15 µM.
As for `O=C1Nc2ccc(Br)cc2/C1=N/Nc1nc(-c2ccc(-c3ccccc3)cc2)cs1` [r49], the IC50 at Recombinant ALK kinase (setting [2]) came out at 1.5 ± 0.17 µM. Also, the GI50 in experiment [1] turned out to be 12 µM.
On to `O=C(N/N=C/c1c[nH]c2ccccc12)c1cc(-c2ccc(-c3ccccc3)cc2)[nH]n1` [r66], for which the IC50 at Recombinant ALK kinase (setting [2]) was 3.6 ± 0.5 µM. Further, the GI50 in experiment [1] worked out at 4.8 µM.
As to `N#C/C(=C\c1cccs1)c1nc(-c2ccc(-c3ccccc3)cc2)cs1` [r67], on Recombinant ALK kinase (setting [2]), the half-inhibitory concentration (IC50) was found to be 4.7 ± 0.7 µM.
The same measure, in the same setting: with `Fc1ccc(-c2csc(-c3ccc(-c4csnn4)cc3)n2)cc1F` [r68] the figure was 3.1 ± 0.34 µM; with `Cc1ccc(-c2csc(-c3ccc(-c4csnn4)cc3)n2)c(C)c1` [r69], 9.3 ± 2.9 µM; with `Cc1ccc(-c2csc(-c3ccc(-c4csnn4)cc3)n2)cc1` [r70], 5.5 ± 2.3 µM.
For the compound `O=[N+]([O-])c1ccc(-c2nc(-c3ccc(-c4csnn4)cc3)no2)cc1` [r75], on Recombinant ALK kinase (setting [2]), the IC50 amounted to 8.8 ± 0.85 µM.
In the case of `Cc1csc(-c2ccc(-c3csnn3)cc2)n1` [r78], the IC50 on Recombinant ALK kinase (setting [2]) came out at 103 µM. Also, the GI50 in experiment [1] is 7.6 µM.
Taken in the same sequence, the figures for `CC(C)(C)c1csc(-c2ccc(-c3csnn3)cc2)n1` [r79] were 24 ± 1.5 µM and 33 µM.
The matching figures for `CCOC(=O)c1csc(-c2ccc(-c3csnn3)cc2)n1` [r80]: 48 µM and 31 µM.
Take `Cc1nc(-c2ccc(-c3csc(-c4cnccc4C(F)(F)F)n3)cc2)no1` [r81]: the 50% inhibitory concentration (IC50) on Recombinant ALK kinase (setting [2]) turned out to be 46.5 µM.
On the same count and under the same terms, in the case of `c1ccc(-c2ccc(-c3csc(-c4ccncc4)n3)cc2)cc1` [r83] it was 11.7 µM.
As for `Nc1nc(-c2ccc3c(c2)Cc2ccccc2-3)cs1` [r84], the IC50 at Recombinant ALK kinase (setting [2]) was determined as 11 ± 1.3 µM.
`c1ccc(-c2ccc(-c3csc(N4CCOCC4)n3)cc2)cc1` [r85]: the IC50 at Recombinant ALK kinase (setting [2]) is 16 ± 4.8 µM.
On to `O=C(Nc1ncc(-c2ccc3c(c2)Cc2ccccc2-3)s1)c1ccccc1I` [r87, N-(5-(9H-fluoren-7-yl)thiazol-2-yl)-2-iodobenzamide], for which the figures for the concentration for half-maximal inhibition (IC50) at Recombinant ALK kinase and at Recombinant Abl T315I were 4.3 ± 0.3 µM and 6.43 ± 0.43 µM, respectively.
Consider `CN1CCN(Cc2ccc(C(=O)Nc3nc(-c4ccc5c(c4)Cc4ccccc4-5)cs3)cc2)CC1` [r89], for which, at Recombinant ALK kinase (setting [2]), the IC50 worked out at 1.3 ± 0.2 µM. For the same compound, in experiment [1], the GI50 was found to be 36 µM.
As to `c1ccc(-c2ccc(-c3cncs3)nc2)nc1` [r113], the IC50 at Recombinant ALK kinase (setting [2]) is 57 ± 5 µM.
On to `CC(=O)Nc1ncc(-c2ccc(-c3cnc(NC(C)=O)[nH]3)cc2)[nH]1` [r114, N,N′-(5,5′-(1,4-phenylene)bis(1H-imidazole-5,2-diyl))diacetamide], for which the IC50 stood at 0.75 ± 0.13 µM at Recombinant ALK kinase and 2.1 µM on Recombinant Abl T315I.
As to `Brc1ccccc1-c1ccc(-c2nccs2)nc1` [r116, 5-(2-bromophenyl)-2-(thiazol-2-yl)pyridine], at Recombinant ALK kinase (setting [2]), the IC50 was 27 ± 1.6 µM.
On to `Clc1cc(-c2cccnc2)ccc1-c1cncs1` [r120, 3-(3-Chloro-4-thiazol-5-yl-phenyl)-pyridine], for which, at Recombinant ALK kinase (setting [2]), the IC50 is 12 ± 1.2 µM.
For `Nc1nc(-c2ccc(-c3cccnc3)cn2)cs1` [r121], the IC50 at Recombinant ALK kinase (setting [2]) came to 42 ± 3.3 µM.
As for `O=C(Nc1nc(-c2ccc(-c3cccnc3)cn2)cs1)c1ccccc1` [r122], the IC50 at Recombinant ALK kinase (setting [2]) turned out to be 37 ± 2.7 µM.
The same measure, in the same setting: with `O=C(Nc1nc(-c2ccc(-c3cccnc3)cn2)cs1)c1ccco1` [r124] the figure was 11 ± 0.72 µM; with `CN1CCN(Cc2ccc(C(=O)Nc3ncc(-c4ccc(-c5cccnc5)cc4Cl)s3)cc2)CC1` [r127, N-[5-(2-Chloro-4-pyridin-3-yl-phenyl)-thiazol-2-yl]-4-(4-methyl-piperazin-1-ylmethyl)-benzamide], 4.6 µM.
Consider `O=C(Nc1ncc(-c2ccc(-c3cccnc3)cc2Cl)s1)c1ccc(Br)o1` [r128, 5-Bromo-furan-2-carboxylic acid[5-(2-chloro-4-pyridin-3-yl-phenyl)-thiazol-2-yl]-amide], for which the IC50 on Recombinant ALK kinase (setting [2]) was found to be 6.7 µM.
On to `Nc1nc(-c2ccc3c(c2)[nH]c2ccccc23)cs1` [r156, 4-(9H-Carbazol-2-yl)-thiazol-2-ylamine], for which the IC50 on Recombinant ALK kinase (setting [2]) is 82 ± 9 µM.
For `O=C(Nc1nc(-c2ccc3c(c2)[nH]c2ccccc23)cs1)c1ccccc1` [r158, N-[4-(9H-Carbazol-2-yl)-thiazol-2-yl]-benzamide], the 50% inhibitory concentration (IC50) on Recombinant ALK kinase (setting [2]) came to 10 ± 0.73 µM.
The same measure, in the same setting: with `O=C(Nc1nc(-c2ccc3c(c2)[nH]c2ccccc23)cs1)c1ccc(-c2ccccc2)cc1` [r169] the figure was 17 ± 1.4 µM; with `O=C(Nc1nc(-c2ccc3c(c2)[nH]c2ccccc23)cs1)c1ccc(Br)o1` [r170, 5-Bromo-furan-2-carboxylic acid[4-(9H-carbazol-2-yl)-thiazol-2-yl]-amide], 14 ± 1.6 µM.
Same read-out and setting: with `O=C(Nc1ccc(-c2ccc(-c3ncco3)nc2)cn1)c1ccc(Br)o1` [r200, 5-bromo-N-(5-(6-(oxazol-2-yl)pyridin-3-yl)pyridin-2-yl)furan-2-carboxamide] the figure was 4.8 ± 0.7 µM; with `O=C(c1ccc(Br)o1)N(C(=O)c1ccc(Br)o1)c1ccc(-c2ccc(-c3ncco3)nc2)cn1` [r201], 17 ± 1.5 µM.
Take `CN1CCN(Cc2ccc(C(=O)Nc3nc(-c4ccc(-c5csc(NC(=O)c6ccc(CN7CCN(C)CC7)cc6)n5)cc4)cs3)cc2)CC1` [r218, N,N′-(4,4′-(1,4-phenylene)bis(thiazolle-4,2-diyl))bis(4-((4-methylpiperazin-1-yl)methyl)benzamide)]: the IC50 at Recombinant ALK kinase came to 1.3 ± 0.5 µM.
With `O=c1[nH]c(-c2ccc3c(c2)[nH]c2ccccc23)cs1` [r233], the IC50 on Recombinant ALK kinase (setting [2]) stood at 2.1 ± 0.7 µM.
Still for that read-out and setting: with `Nc1ccc(-c2ccc(-c3cncs3)c(Cl)c2)cn1` [r235, 5-(3-cloro-4-(tiazol-5-il)fenil)piridin-2-ammina] the figure was 21 ± 2.5 µM.
Still for that read-out and setting: in the case of `c1cc(-c2ccc(-c3ccoc3)cc2)co1` [r236, 1,4-di(furan-3-yl)benzene] it was 1.3 ± 0.4 µM; in that of `CN1CCN(C(=O)c2ccc(-c3ccc(-c4ccc(C(=O)N5CCN(C)CC5)o4)cc3)o2)CC1` [r237, (5-{4-[5-(4-Methyl-piperazine-1-carbonyl)-furan-2-yl]-phenyl}-furan-2-yl)-(4-methyl-piperazin-1-yl)-methasone], 31 ± 5.7 µM.
Same read-out and setting: in the case of `O=C(O)c1ccc(-c2ccc(-c3ccc(C(=O)O)o3)cc2)o1` [r239, 5,5′-(1,4-phenylene)difuran-2-carboxylic acid] it was 20 ± 2.3 µM; in that of `COc1ncc(-c2ccc(-c3cccnc3)cc2Cl)s1` [r262, 5-(2-cloro-4-(piridin-3-il)fenil)-2-metossitiazolo], 3.7 ± 0.5 µM.
